Assay results taken from US20150258059A1, “ANTIMICROBIAL AND RADIOPROTECTIVE COMPOUNDS” (BioDiem, Ltd, priority 2001, published 2015).

For `C/C(=C\c1ccc2c(c1)OCO2)[N+](=O)[O-]` [Compound (1)], the “pH (in 50% v./v. ethanol)” value was “approximately neutral”.
